According to patent publication US7491794B2, “Macrocyclic compounds as inhibitors of viral replication” (Intermune, Inc., priority 2003, dated 2009):

Tests used:
NS3-NS4A protease = target: T1, NS3-NS4A protease (Hepatitis C virus genotype 1a, UniProt P27958); assay: NS3-NS4A protease assay (NS3 inhibition assay, RETS1 substrate), Section B; assay type: biochemical; conditions: read-out: NS3-NS4A IC50
T1 construct: Recombinant E. coli or Baculovirus full-length NS3 was diluted to 3.33 μM with assay buffer; made in house; host or cells: E. coli or baculovirus (BV) system
T1 sequence (P27958 1027-1657): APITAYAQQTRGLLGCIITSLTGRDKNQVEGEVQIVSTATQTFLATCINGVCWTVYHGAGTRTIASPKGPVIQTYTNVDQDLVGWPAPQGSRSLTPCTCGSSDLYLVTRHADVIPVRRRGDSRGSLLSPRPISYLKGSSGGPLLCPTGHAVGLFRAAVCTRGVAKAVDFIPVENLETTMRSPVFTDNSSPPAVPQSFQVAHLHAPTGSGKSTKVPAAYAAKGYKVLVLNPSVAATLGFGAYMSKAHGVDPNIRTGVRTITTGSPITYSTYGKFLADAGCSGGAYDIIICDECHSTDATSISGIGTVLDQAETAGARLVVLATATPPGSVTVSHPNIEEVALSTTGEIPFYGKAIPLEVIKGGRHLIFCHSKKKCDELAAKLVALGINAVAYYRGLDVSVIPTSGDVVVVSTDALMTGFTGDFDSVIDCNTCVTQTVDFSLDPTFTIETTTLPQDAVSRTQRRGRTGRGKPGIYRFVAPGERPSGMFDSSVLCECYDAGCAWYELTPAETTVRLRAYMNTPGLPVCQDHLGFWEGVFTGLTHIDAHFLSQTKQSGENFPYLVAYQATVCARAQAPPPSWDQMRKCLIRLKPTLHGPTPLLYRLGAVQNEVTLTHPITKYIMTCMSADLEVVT
Summary of the method: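 Kinetic fluorescence read (335 nm excitation, 495 nm emission, 30 min) of RETS1 cleavage by NS3/NS4A-2 complex, 2 nM E. coli or 3 nM baculovirus NS3, after 10 min room-temperature compound pre-incubation. Four-parameter-fit IC50s converted to Ki by Cheng–Prusoff, Ki=IC50/(1+[S]/Km).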

[1] = test system: HCV sub-genomic replicon, GS4.3; assay: Quantitation by ELISA of NPTII in the HCV sub-genomic replicon, GS4.3, Section B; assay type: cell-based; conditions: Hepatitis C virus; GS4.3 cells, 72 h incubation; read-out: Replicon EC50
Summary of the method: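 NPTII marker protein in lysates was quantified by ELISA read at 450 nm after 72 h inhibitor exposure (3-fold series, final DMSO 1%, G418-free medium) of HuH-7 cells stably harbouring the subgenomic HCV replicon. Values relative to DMSO-treated controls; 4-parameter curves gave EC50.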

Row | Compound | IC50 (NS3-NS4A protease) [nM] | EC50 [1] [nM]
1 | CC(C)(C)OC(=O)N[C@H]1CCCCC/C=C\[C@@H]2C[C@@]2(C(=O)NS(=O)(=O)C2CC2)NC(=O)[C@@H]2C[C@@H](OC(=O)N3Cc4ccc(N)cc4C3)CN2C1=O [AR00334286, (1S,4R,6S,14S,18R)-5-Amino-1,3-dihydro-isoindole-2-carboxylic acid 14-tert-butoxycarbonylamino-4-cyclopropanesulfonylaminocarbonyl-2,15-dioxo-3,16-diaza-tricyclo[14.3.0.0^4,6]nonadec-7-en-18-yl ester] | < 100 | < 100
2 | CC(C)(C)OC(=O)N[C@H]1CCCCC/C=C\[C@@H]2C[C@@]2(C(=O)NS(=O)(=O)C(F)(F)F)NC(=O)[C@@H]2C[C@@H](OC(=O)N3Cc4ccccc4C3)CN2C1=O [AR00340479, (1S,4R,6S,14S,18R)-1,3-Dihydro-isoindole-2-carboxylic acid 14-tert-butoxycarbonylamino-2,15-dioxo-4-trifluoromethanesulfonylaminocarbonyl-3,16-diaza-tricyclo[14.3.0.0^4,6]nonadec-7-en-18-yl ester] | < 100 | < 100
3 | O=C(N[C@H]1CCCCC/C=C\[C@@H]2C[C@@]2(C(=O)NS(=O)(=O)C2CC2)NC(=O)[C@@H]2C[C@@H](OC(=O)N3CCc4ccccc4C3)CN2C1=O)O[C@@H]1CCOC1 [AR00304163, (1S,4R,6S,14S,18R)-3,4-Dihydro-1H-isoquinoline-2-carboxylic acid 4-cyclopropanesulfonylaminocarbonyl-2,15-dioxo-14-(tetrahydro-furan-3R-yloxycarbonylamino)-3,16-diaza-tricyclo[14.3.0.0^4,6]nonadec-7-en-18-yl ester] | < 100 | < 100
4 | C[C@H]1CN(C(=O)O[C@@H]2C[C@H]3C(=O)N[C@]4(C(=O)NS(=O)(=O)C5CC5)C[C@H]4/C=C\CCCCC[C@H](NC(=O)OC(C)(C)C)C(=O)N3C2)Cc2ccccc21 [AR00333462, (1S,4R,6S,14S,18R)-4R-Methyl-3,4-dihydro-1H-isoquinoline-2-carboxylic acid 14-tert-butoxycarbonylamino-4-cyclopropanesulfonylaminocarbonyl-2,15-dioxo-3,16-diaza-tricyclo[14.3.0.0^4,6]nonadec-7-en-18-yl ester] | < 100 | < 100
5 | CC(C)(C)OC(=O)N[C@H]1CCCCC/C=C\[C@@H]2C[C@@]2(C(=O)NS(=O)(=O)c2ccc(C#N)cc2)NC(=O)[C@@H]2C[C@@H](OC(=O)N3Cc4ccccc4C3)CN2C1=O [AR00334248, (1S,4R,6S,14S,18R)-1,3-Dihydro-isoindole-2-carboxylic acid 14-tert-butoxycarbonylamino-4-(4-cyano-benzenesulfonylaminocarbonyl)-2,15-dioxo-3,16-diaza-tricyclo[14.3.0.0^4,6]nonadec-7-en-18-yl ester] | < 100 | < 1000
6 | O=C(N[C@H]1CCCCC/C=C\[C@@H]2C[C@@]2(C(=O)NS(=O)(=O)C2CC2)NC(=O)[C@@H]2C[C@@H](OC(=O)N3CCc4ccccc4C3)CN2C1=O)OCC(F)(F)F [AR00320578, (1S,4R,6S,14S,18R)-3,4-Dihydro-1H-isoquinoline-2-carboxylic acid 4-cyclopropanesulfonylaminocarbonyl-2,15-dioxo-14-(2,2,2-trifluoro-ethoxycarbonylamino)-3,16-diaza-tricyclo[14.3.0.0^4,6]nonadec-7-en-18-yl ester] | < 100 | < 100
7 | O=C(NC1CCCC1)N[C@H]1CCCCC/C=C\[C@@H]2C[C@@]2(C(=O)O)NC(=O)[C@@H]2C[C@@H](OC(=O)N3CCc4c(F)cccc4C3)CN2C1=O [AR00304077, (1S,4R,6S,14S,18R)-14-(3-Cyclopentyl-ureido)-18-(5-fluoro-3,4-dihydro-1H-isoquinoline-2-carbonyloxy)-2,15-dioxo-3,16-diaza-tricyclo[14.3.0.0^4,6]nonadec-7-ene-4-carboxylic acid] | < 100 | < 10000
8 | CC(C)(C)OC(=O)N[C@H]1CCCCC/C=C\[C@@H]2C[C@@]2(C(=O)NS(=O)(=O)C2CC2)NC(=O)[C@@H]2C[C@@H](OC(=O)N3CCc4cc(F)ccc4C3)CN2C1=O [AR00301751, (1S,4R,6S,14S,18R)-6-Fluoro-3,4-dihydro-1H-isoquinoline-2-carboxylic acid 14-tert-butoxycarbonylamino-4-cyclopropanesulfonylaminocarbonyl-2,15-dioxo-3,16-diaza-tricyclo[14.3.0.0^4,6]nonadec-7-en-18-yl ester] | < 100 | < 100
9 | CC(C)(C)OC(=O)N[C@H]1CCCCC/C=C\[C@@H]2C[C@@]2(C(=O)NS(=O)(=O)C2CC2)NC(=O)[C@@H]2C[C@@H](OC(=O)N3CCc4ccccc4C3)CN2C1=O [AR00261408, (1S,4R,6S,14S,18R)-3,4-Dihydro-1H-isoquinoline-2-carboxylic acid 14-tert-butoxycarbonylamino-4-cyclopropanesulfonylaminocarbonyl-2,15-dioxo-3,16-diaza-tricyclo[14.3.0.0^4,6]nonadec-7-en-18-yl ester] | < 100 | < 100
10 | O=C(N[C@H]1CCCCC/C=C\[C@@H]2C[C@@]2(C(=O)NS(=O)(=O)C2CC2)NC(=O)[C@@H]2C[C@@H](OC(=O)N3Cc4ccccc4C3)CN2C1=O)OC1CCOCC1 [AR00320081, (1S,4R,6S,14S,18R)-1,3-Dihydro-isoindole-2-carboxylic acid 4-cyclopropanesulfonylaminocarbonyl-2,15-dioxo-14-(tetrahydro-pyran-4-yloxycarbonylamino)-3,16-diaza-tricyclo[14.3.0.0^4,6]nonadec-7-en-18-yl ester] | < 100 | < 100
11 | CC(C)(C)OC(=O)N[C@H]1CCCCC/C=C\[C@@H]2C[C@@]2(C(=O)NS(=O)(=O)c2ccc(Cl)s2)NC(=O)[C@@H]2C[C@@H](OC(=O)N3Cc4ccccc4C3)CN2C1=O [AR00334188, (1S,4R,6S,14S,18R)-1,3-Dihydro-isoindole-2-carboxylic acid 14-tert-butoxycarbonylamino-4-(5-chloro-thiophene-2-sulfonylaminocarbonyl)-2,15-dioxo-3,16-diaza-tricyclo[14.3.0.0^4,6]nonadec-7-en-18-yl ester] | < 100 | < 1000
12 | O=C(N[C@H]1CCCCCCCC2C[C@@]2(C(=O)NS(=O)(=O)C2CC2)NC(=O)[C@@H]2C[C@@H](OC(=O)N3CCc4ccccc4C3)CN2C1=O)OC1CCCC1 (stereo in doubt) [AR00324375, (1S,4R,6S,14S,18R)-3,4-Dihydro-1H-isoquinoline-2-carboxylic acid 14-cyclopentyloxycarbonylamino-4-cyclopropanesulfonylaminocarbonyl-2,15-dioxo-3,16-diaza-tricyclo[14.3.0.0^4,6]nonadec-18-yl ester] | < 1000 | < 1000
13 | O=C(N[C@H]1CCCCC/C=C\[C@@H]2C[C@@]2(C(=O)NS(=O)(=O)C2CC2)NC(=O)[C@@H]2C[C@@H](OC(=O)N3CCc4ccccc4C3)CN2C1=O)OC(CF)CF [AR00320580, (1S,4R,6S,14S,18R)-3,4-Dihydro-1H-isoquinoline-2-carboxylic acid 4-cyclopropanesulfonylaminocarbonyl-14-(2-fluoro-1-fluoromethyl-ethoxycarbonylamino)-2,15-dioxo-3,16-diaza-tricyclo[14.3.0.0^4,6]nonadec-7-en-18-yl ester] | < 100 | < 100
